Results as given in ChEMBL document CHEMBL3745709, “Synthesis of novel ethyl 1-ethyl-6-fluoro-7-(fatty amido)-1,4-dihydro-4-oxoquinoline-3-carboxylate derivatives and their biological evaluation” (Bioorg Med Chem Lett, 2016).
In brackets after ≈: the same amount, converted by molar mass. Each block holds one compound with its values, some of them ahead of it.

Experiments:
Candida albicans [1] = test: Antifungal activity against Candida albicans MTCC 3017 […] after 24 hrs at 30 degC by well diffusion method; format: functional; conditions: MTCC 3017, 24 h
A549 = test: Cytotoxicity against human A549 cells assessed as reduction in cell viability by MTT assay; format: functional, cell-based
Staphylococcus aureus [2] = test: Antibacterial activity against Staphylococcus aureus MLS-16 MTCC 2940 assessed as inhibition zone after 24 hrs at 30 degC by well diffusion method; format: functional; conditions: MLS-16 MTCC 2940, 24 h
[3] = Cytotoxicity against human SKOV3 cells assessed as reduction in cell viability by MTT assay; format: functional, cell-based; conditions: SK-OV-3
MCF7 = test: Cytotoxicity against human MCF7 cells assessed as reduction in cell viability by MTT assay; format: functional, cell-based
Bacillus subtilis [4] = test: Antibacterial activity against Bacillus subtilis MTCC 121 assessed as inhibition zone after 24 hrs at 30 degC by well diffusion method; format: functional; conditions: MTCC 121, 24 h
Micrococcus luteus = test: Antibacterial activity against Micrococcus luteus MTCC 2470 assessed as inhibition zone after 24 hrs at 30 degC by well diffusion method; format: functional; conditions: MTCC 2470, 24 h
Raoultella planticola = test: Antibacterial activity against Klebsiella planticola MTCC 530 assessed as inhibition zone after 24 hrs at 30 degC by well diffusion method; format: functional; conditions: MTCC 530, 24 h
Escherichia coli [5] = test: Antibacterial activity against Escherichia coli MTCC 739 assessed as inhibition zone after 24 hrs at 30 degC by well diffusion method; format: functional; conditions: MTCC 739, 24 h
Staphylococcus aureus [6] = test: Antibacterial activity against Staphylococcus aureus MTCC 96 […] after 24 hrs at 30 degC by well diffusion method; format: functional; conditions: MTCC 96, 24 h
[7] = Antioxidant activity assessed as DPPH free radical scavenging activity; format: physicochemical
[8] = Cytotoxicity against human DU145 cells assessed as reduction in cell viability by MTT assay; format: functional, cell-based; conditions: DU-145
Pseudomonas aeruginosa = test: Antibacterial activity against Pseudomonas aeruginosa MTCC 2453 assessed as inhibition zone after 24 hrs at 30 degC by well diffusion method; format: functional; conditions: MTCC 2453, 24 h
Escherichia coli [9] = test: Antibiofilm activity against Escherichia coli MTCC 739 after 24 hrs by crystal violet staining method; format: functional, organism-based; conditions: MTCC 739, 24 h
Staphylococcus aureus [10] = test: Bactericidal activity against Staphylococcus aureus MLS-16 MTCC 2940 assessed as microbial killing after 24 hrs; format: functional; conditions: MLS-16 MTCC 2940, 24 h
Staphylococcus aureus [11] = test: Antibiofilm activity against Staphylococcus aureus MLS-16 MTCC 2940 after 24 hrs by crystal violet staining method; format: functional, organism-based; conditions: MLS-16 MTCC 2940, 24 h
Staphylococcus aureus [12] = test: Bactericidal activity against Staphylococcus aureus MTCC 96 assessed as microbial killing after 24 hrs; format: functional; conditions: MTCC 96, 24 h
Bacillus subtilis [13] = test: Bactericidal activity against Bacillus subtilis MTCC 121 assessed as microbial killing after 24 hrs; format: functional; conditions: MTCC 121, 24 h
Staphylococcus aureus [14] = test: Antibiofilm activity against Staphylococcus aureus MTCC 96 after 24 hrs by crystal violet staining method; format: functional, organism-based; conditions: MTCC 96, 24 h
Bacillus subtilis [15] = test: Antibiofilm activity against Bacillus subtilis MTCC 121 after 24 hrs by crystal violet staining method; format: functional, organism-based; conditions: MTCC 121, 24 h
Escherichia coli [16] = test: Bactericidal activity against Escherichia coli MTCC 739 assessed as microbial killing after 24 hrs; format: functional; conditions: MTCC 739, 24 h
[17] = Cytotoxicity against human IMR90 cells assessed as reduction in cell viability by MTT assay; format: cell-based; conditions: IMR-90
[Candida] aaseri [18] = Antifungal activity against Candida aaseri MTCC 1962 assessed as inhibition zone after 24 hrs at 30 degC by well diffusion method; format: functional; conditions: Yamadazyma aaseri, MTCC 1962, 24 h
Candida albicans [19] = test: Fungicidal activity against Candida albicans MTCC 7315 assessed as microbial killing after 24 hrs; format: functional; conditions: MTCC 7315, 24 h
Candida albicans [20] = test: Antifungal activity against Candida albicans MTCC 7315 assessed as inhibition zone after 24 hrs at 30 degC by well diffusion method; format: functional; conditions: MTCC 7315, 24 h
Candida parapsilosis [21] = test: Fungicidal activity against Candida parapsilosis MTCC 1744 assessed as microbial killing after 24 hrs; format: functional; conditions: Lodderomyces parapsilosis, MTCC 1744, 24 h
Candida albicans [22] = test: Antifungal activity against Candida albicans MTCC 4748 assessed as inhibition zone after 24 hrs at 30 degC by well diffusion method; format: functional; conditions: MTCC 4748, 24 h
Candida albicans [23] = test: Antifungal activity against Candida albicans MTCC 1637 assessed as inhibition zone after 24 hrs at 30 degC by well diffusion method; format: functional; conditions: MTCC 1637, 24 h
Candida albicans [24] = test: Antifungal activity against Candida albicans MTCC 183 assessed as inhibition zone after 24 hrs at 30 degC by well diffusion method; format: functional; conditions: MTCC 183, 24 h
Candida albicans [25] = test: Fungicidal activity against Candida albicans MTCC 1637 assessed as microbial killing after 24 hrs; format: functional; conditions: MTCC 1637, 24 h
Candida albicans [26] = test: Fungicidal activity against Candida albicans MTCC 3018 assessed as microbial killing after 24 hrs; format: functional; conditions: MTCC 3018, 24 h
Nakaseomyces glabratus [27] = test: Antifungal activity against Candida glabrata MTCC 3019 assessed as inhibition zone after 24 hrs at 30 degC by well diffusion method; format: functional; conditions: MTCC 3019, 24 h
Pichia kudriavzevii [28] = test: Fungicidal activity against Candida krusei MTCC 3020 assessed as microbial killing after 24 hrs; format: functional; conditions: MTCC 3020, 24 h
Candida albicans [29] = test: Antifungal activity against Candida albicans MTCC 227 assessed as inhibition zone after 24 hrs at 30 degC by well diffusion method; format: functional; conditions: MTCC 227, 24 h
Candida albicans [30] = test: Fungicidal activity against Candida albicans MTCC 227 assessed as microbial killing after 24 hrs; format: functional; conditions: MTCC 227, 24 h
Candida albicans [31] = test: Fungicidal activity against Candida albicans MTCC 183 assessed as microbial killing after 24 hrs; format: functional; conditions: MTCC 183, 24 h
Candida albicans [32] = test: Fungicidal activity against Candida albicans MTCC 854 assessed as microbial killing after 24 hrs; format: functional; conditions: MTCC 854, 24 h
[Candida] aaseri [33] = Fungicidal activity against Candida aaseri MTCC 1962 assessed as microbial killing after 24 hrs; format: functional; conditions: Yamadazyma aaseri, MTCC 1962, 24 h
Pichia sporocuriosa [34] = test: Fungicidal activity against Issatchenkia hanoiensis MTCC 4755 assessed as microbial killing after 24 hrs; format: functional; conditions: MTCC 4755, 24 h
Pichia kudriavzevii [35] = test: Antifungal activity against Candida krusei MTCC 3020 assessed as inhibition zone after 24 hrs at 30 degC by well diffusion method; format: functional; conditions: MTCC 3020, 24 h
Nakaseomyces glabratus [36] = test: Fungicidal activity against Candida glabrata MTCC 3019 assessed as microbial killing after 24 hrs; format: functional; conditions: MTCC 3019, 24 h
Candida albicans [37] = test: Fungicidal activity against Candida albicans MTCC 4748 assessed as microbial killing after 24 hrs; format: functional; conditions: MTCC 4748, 24 h
Candida albicans [38] = test: Antifungal activity against Candida albicans MTCC 3018 assessed as inhibition zone after 24 hrs at 30 degC by well diffusion method; format: functional; conditions: MTCC 3018, 24 h
Candida albicans [39] = test: Fungicidal activity against Candida albicans MTCC 3017 assessed as microbial killing after 24 hrs; format: functional; conditions: MTCC 3017, 24 h
Candida albicans [40] = test: Antifungal activity against Candida albicans MTCC 854 assessed as inhibition zone after 24 hrs at 30 degC by well diffusion method; format: functional; conditions: MTCC 854, 24 h
Candida parapsilosis [41] = test: Antifungal activity against Candida parapsilosis MTCC 1744 assessed as inhibition zone after 24 hrs at 30 degC by well diffusion method; format: functional; conditions: Lodderomyces parapsilosis, MTCC 1744, 24 h
Candida albicans [42] = test: Fungicidal activity against Candida albicans MTCC 3958 assessed as microbial killing after 24 hrs; format: functional; conditions: MTCC 3958, 24 h
Pichia sporocuriosa [43] = test: Antifungal activity against Issatchenkia hanoiensis MTCC 4755 assessed as inhibition zone after 24 hrs at 30 degC by well diffusion method; format: functional; conditions: MTCC 4755, 24 h
Candida albicans [44] = test: Antifungal activity against Candida albicans MTCC 3958 assessed as inhibition zone after 24 hrs at 30 degC by well diffusion method; format: functional; conditions: MTCC 3958, 24 h

Structure (SMILES): Cc1c(C)c2c(c(C)c1O)CC[C@@](C)(CCC[C@H](C)CCC[C@H](C)CCCC(C)C)O2 [ALPHA-TOCOPHEROL]
- EC50 [7]: 10.4 µg/mL (≈ 24.1 µM)

Structure (SMILES): O=C(O)c1cn(C2CC2)c2cc(N3CCNCC3)c(F)cc2c1=O [CIPROFLOXACIN]
- IC50 (Escherichia coli [9]): 0.5 µg/mL (≈ 1.51 µM)
- MBC (Staphylococcus aureus [10]): 0.9 µg/mL (≈ 2.72 µM)
- IC50 (Staphylococcus aureus [11]): 0.4 µg/mL (≈ 1.21 µM)
- MBC (Staphylococcus aureus [12]): 0.9 µg/mL (≈ 2.72 µM)
- MIC (Staphylococcus aureus [2]): 0.9 µg/mL (≈ 2.72 µM)
- MBC (Bacillus subtilis [13]): 1.9 µg/mL (≈ 5.73 µM)
- MIC (Bacillus subtilis [4]): 0.9 µg/mL (≈ 2.72 µM)
- MIC (Micrococcus luteus): 0.9 µg/mL (≈ 2.72 µM)
- MIC (Raoultella planticola): 0.9 µg/mL (≈ 2.72 µM)
- IC50 (Staphylococcus aureus [14]): 0.6 µg/mL (≈ 1.81 µM)
- MIC (Escherichia coli [5]): 0.9 µg/mL (≈ 2.72 µM)
- IC50 (Bacillus subtilis [15]): 0.7 µg/mL (≈ 2.11 µM)
- MIC (Staphylococcus aureus [6]): 0.9 µg/mL (≈ 2.72 µM)
- MIC (Pseudomonas aeruginosa): 0.9 µg/mL (≈ 2.72 µM)
- MBC (Escherichia coli [16]): 0.9 µg/mL (≈ 2.72 µM)

Structure (SMILES): COc1cccc2c1C(=O)c1c(O)c3c(c(O)c1C2=O)C[C@@](O)(C(=O)CO)C[C@@H]3O[C@H]1C[C@H](N)[C@H](O)[C@H](C)O1 [DOXORUBICIN]
- IC50 [3]: 0.7 µM
- IC50 [17]: 21.3 µM
- IC50 [8]: 0.7 µM

More lines, main results first:

- MIC (Candida albicans [1]): > 125 µg/mL
- MIC (Staphylococcus aureus [2]): > 125 µg/mL
- MIC (Bacillus subtilis [4]): > 125 µg/mL
- MIC (Micrococcus luteus): > 125 µg/mL
- MIC (Escherichia coli [5]): > 125 µg/mL
- MIC (Staphylococcus aureus [6]): > 125 µg/mL
- EC50 [7]: Not Active
- MIC (Pseudomonas aeruginosa): > 125 µg/mL
Structure (SMILES): CCCCCCCCCCCCCCCC(=O)Nc1cc2c(cc1F)c(=O)c(C(=O)OCC)cn2CC
- IC50 (A549): 24.3 µM
- IC50 [3]: 17.8 µM
- IC50 (MCF7): 18.6 µM
- MIC (Raoultella planticola): > 125 µg/mL
- IC50 [8]: 25.2 µM

- EC50 [7]: 28.5 µg/mL (≈ 129 µM)
Structure (SMILES): Cc1cc(C(C)(C)C)c(O)c(C(C)(C)C)c1 [BUTYLATED HYDROXYTOLUENE]

- MIC (Candida albicans [1]): 7.8 µg/mL (≈ 18.7 µM)
- MIC ([Candida] aaseri [18]): 7.8 µg/mL (≈ 18.7 µM)
- MIC (Candida albicans [20]): 7.8 µg/mL (≈ 18.7 µM)
- MIC (Candida albicans [22]): 7.8 µg/mL (≈ 18.7 µM)
- MIC (Candida albicans [23]): 7.8 µg/mL (≈ 18.7 µM)
- MIC (Candida albicans [24]): 7.8 µg/mL (≈ 18.7 µM)
- MIC (Nakaseomyces glabratus [27]): 7.8 µg/mL (≈ 18.7 µM)
- MIC (Candida albicans [29]): 7.8 µg/mL (≈ 18.7 µM)
- MIC (Pichia kudriavzevii [35]): 7.8 µg/mL (≈ 18.7 µM)
- MIC (Candida albicans [38]): 7.8 µg/mL (≈ 18.7 µM)
- MIC (Candida albicans [40]): 7.8 µg/mL (≈ 18.7 µM)
- MIC (Candida parapsilosis [41]): 7.8 µg/mL (≈ 18.7 µM)
- MIC (Pichia sporocuriosa [43]): 7.8 µg/mL (≈ 18.7 µM)
- MIC (Candida albicans [44]): 7.8 µg/mL (≈ 18.7 µM)
Structure (SMILES): Clc1ccc(COC(Cn2ccnc2)c2ccc(Cl)cc2Cl)c(Cl)c1 (stereo unspecified) [MICONAZOLE]
- MFC (Candida albicans [19]): 7.8 µg/mL (≈ 18.7 µM)
- MFC (Candida parapsilosis [21]): 7.8 µg/mL (≈ 18.7 µM)
- MFC (Candida albicans [25]): 15.6 µg/mL (≈ 37.5 µM)
- MFC (Candida albicans [26]): 7.8 µg/mL (≈ 18.7 µM)
- MFC (Pichia kudriavzevii [28]): 7.8 µg/mL (≈ 18.7 µM)
- MFC (Candida albicans [30]): 15.6 µg/mL (≈ 37.5 µM)
- MFC (Candida albicans [31]): 7.8 µg/mL (≈ 18.7 µM)
- MFC (Candida albicans [32]): 15.6 µg/mL (≈ 37.5 µM)
- MFC ([Candida] aaseri [33]): 7.8 µg/mL (≈ 18.7 µM)
- MFC (Pichia sporocuriosa [34]): 7.8 µg/mL (≈ 18.7 µM)
- MFC (Nakaseomyces glabratus [36]): 15.6 µg/mL (≈ 37.5 µM)
- MFC (Candida albicans [37]): 7.8 µg/mL (≈ 18.7 µM)
- MFC (Candida albicans [39]): 7.8 µg/mL (≈ 18.7 µM)
- MFC (Candida albicans [42]): 15.6 µg/mL (≈ 37.5 µM)
